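Each compound was tested at five concentrations against cells in 96-well plates for 48 hours. At the GI50, growth is halved.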 The source made the active and inactive calls. Cut-off read from the data, not from the text of the source: active = GI50 up to about 1.1 µM and inactive = higher.
What was measured:
Test in all cases: growth of human tumour cells (NCI), 48 h
K562 = test system: K562
SNB-19 = test system: SNB-19
A498 = test system: A498
OVCAR-5 = test system: OVCAR-5
LOX IMVI = test system: LOX IMVI
HOP-92 = test system: HOP-92
HL-60 = test system: HL-60
MDA-N = test system: MDA-N
SF-295 = test system: SF-295
KM12 = test system: KM12
CCRF-CEM = test system: CCRF-CEM
SNB-75 = test system: SNB-75
M19-MEL = test system: M19-MEL
UACC-62 = test system: UACC-62
MDA-MB-435 = test system: MDA-MB-435
HT-29 = test system: HT-29
SK-MEL-5 = test system: SK-MEL-5
SK-MEL-2 = test system: SK-MEL-2
SW-620 = test system: SW-620
COLO 205 = test system: COLO 205

**Q.** How did the GI50 (K562) turn out when `CC(C)CCCCCCCCCCCCC(=O)NCC(=O)NC1C(O)C(O)C(Nc2[nH]cnc3ncnc2-3)OC1C(O)CO` (configuration not stated) was run?
**A.** Its GI50 is 0.0436 µM (active).

**Q.** What about the GI50 (SNB-19) of the same compound?
**A.** The GI50 was 0.000564 µM (active).

**Q.** What about the GI50 (A498) of the same compound?
**A.** Its GI50 is 0.000248 µM (active).

**Q.** What about the GI50 (OVCAR-5) of the same compound?
**A.** The GI50 was 0.00199 µM (active).

**Q.** What about the GI50 (LOX IMVI) of the same compound?
**A.** Its GI50 is 0.000508 µM (active).

**Q.** And the GI50 (HOP-92)?
**A.** The GI50 was 0.00049 µM (active).

**Q.** What about the GI50 (HL-60) of the same compound?
**A.** Its GI50 is 0.00057 µM (active).

**Q.** What about the GI50 (MDA-N) of the same compound?
**A.** Its GI50 is 0.229 µM (active).

**Q.** What about the GI50 (SF-295) of the same compound?
**A.** The GI50 was 0.000604 µM (active).

**Q.** What about the GI50 (KM12) of the same compound?
**A.** The GI50 was 0.000575 µM (active).

**Q.** And the GI50 (CCRF-CEM)?
**A.** Its GI50 is 0.0568 µM (active).

**Q.** What about the GI50 (SNB-75) of the same compound?
**A.** Its GI50 is 0.000441 µM (active).

**Q.** And the GI50 (M19-MEL)?
**A.** Its GI50 is 0.000211 µM (active).

**Q.** What about the GI50 (UACC-62) of the same compound?
**A.** The GI50 was 0.000519 µM (active).

**Q.** And the GI50 (MDA-MB-435)?
**A.** The GI50 was 0.224 µM (active).

**Q.** And the GI50 (HT-29)?
**A.** Its GI50 is 0.000555 µM (active).

**Q.** What about the GI50 (SK-MEL-5) of the same compound?
**A.** The GI50 was 0.00114 µM (active).

**Q.** And the GI50 (SK-MEL-2)?
**A.** The GI50 was 0.00579 µM (active).

**Q.** How did the GI50 (K562) turn out when `COc1ccc(/C(Cl)=C(\C=N/O)c2ccc(OC)c(OC)c2)cc1OC` was run?
**A.** Its GI50 is > 100 µM (inactive).

**Q.** And the GI50 (SNB-19)?
**A.** The GI50 was > 100 µM (inactive).

**Q.** And the GI50 (SW-620)?
**A.** Its GI50 is > 100 µM (inactive).

**Q.** What about the GI50 (A498) of the same compound?
**A.** The GI50 was > 100 µM (inactive).

**Q.** What about the GI50 (OVCAR-5) of the same compound?
**A.** Its GI50 is > 100 µM (inactive).

**Q.** And the GI50 (LOX IMVI)?
**A.** Its GI50 is > 100 µM (inactive).

**Q.** What about the GI50 (HOP-92) of the same compound?
**A.** The GI50 was 63.4 µM (inactive).

**Q.** And the GI50 (HL-60)?
**A.** Its GI50 is > 100 µM (inactive).

**Q.** What about the GI50 (SF-295) of the same compound?
**A.** The GI50 was 81.7 µM (inactive).

**Q.** And the GI50 (KM12)?
**A.** The GI50 was > 100 µM (inactive).

**Q.** And the GI50 (CCRF-CEM)?
**A.** The GI50 was > 100 µM (inactive).

**Q.** What about the GI50 (COLO 205) of the same compound?
**A.** The GI50 was > 100 µM (inactive).

**Q.** And the GI50 (SNB-75)?
**A.** Its GI50 is > 100 µM (inactive).

**Q.** And the GI50 (M19-MEL)?
**A.** The GI50 was > 100 µM (inactive).

**Q.** And the GI50 (UACC-62)?
**A.** The GI50 was > 100 µM (inactive).

**Q.** What about the GI50 (HT-29) of the same compound?
**A.** Its GI50 is > 100 µM (inactive).

**Q.** And the GI50 (SK-MEL-5)?
**A.** The GI50 was > 100 µM (inactive).

**Q.** What about the GI50 (SK-MEL-2) of the same compound?
**A.** Its GI50 is > 100 µM (inactive).

**Q.** Which results are given for `COC1/C=C\C=C(/C)C(=O)NC2=CC(=O)C(N)=C(CC(C)CC(OC)C(O)C(C)C=C(C)C1OC(N)=O)C2=O` (configuration not stated)?
**A.** GI50 (K562): 0.0204 µM (active); GI50 (SNB-19): 0.0424 µM (active); GI50 (SW-620): < 0.0133 µM (active); GI50 (A498): 19.1 µM (inactive); GI50 (OVCAR-5): 0.375 µM (active); GI50 (LOX IMVI): 0.0193 µM (active); GI50 (HOP-92): 0.0156 µM (active); GI50 (HL-60): 0.0585 µM (active); GI50 (MDA-N): < 0.0171 µM (active); GI50 (SF-295): 0.0295 µM (active); GI50 (KM12): 0.0244 µM (active); GI50 (CCRF-CEM): 0.178 µM (active); GI50 (COLO 205): < 0.01 µM (active); GI50 (SNB-75): < 0.0137 µM (active); GI50 (M19-MEL): < 0.01 µM (active); GI50 (UACC-62): 0.0247 µM (active); GI50 (MDA-MB-435): < 0.0191 µM (active); GI50 (HT-29): < 0.01 µM (active); GI50 (SK-MEL-5): 0.042 µM (active); GI50 (SK-MEL-2): < 0.01 µM (active)

**Q.** What does the source list for `COc1ccc(C2=NC(C)(C)CO2)cc1`?
**A.** GI50 (K562): > 100 µM (inactive); GI50 (SNB-19): > 100 µM (inactive); GI50 (SW-620): > 100 µM (inactive); GI50 (A498): > 100 µM (inactive); GI50 (OVCAR-5): > 100 µM (inactive); GI50 (LOX IMVI): 82.6 µM (inactive); GI50 (HOP-92): > 100 µM (inactive); GI50 (HL-60): > 100 µM (inactive); GI50 (SF-295): > 100 µM (inactive); GI50 (KM12): > 100 µM (inactive); GI50 (CCRF-CEM): > 100 µM (inactive); GI50 (COLO 205): > 100 µM (inactive); GI50 (SNB-75): > 100 µM (inactive); GI50 (M19-MEL): > 100 µM (inactive); GI50 (UACC-62): > 100 µM (inactive); GI50 (HT-29): > 100 µM (inactive); GI50 (SK-MEL-5): > 100 µM (inactive); GI50 (SK-MEL-2): > 100 µM (inactive)

**Q.** Which GI50 (K562) does the source give for `CC1CC2CC(=O)CC3(C1)C2CCCN3CCCO` (configuration not stated) here?
**A.** The GI50 was > 100 µM (inactive).

**Q.** And the GI50 (SNB-19)?
**A.** The GI50 was > 100 µM (inactive).

**Q.** And the GI50 (SW-620)?
**A.** The GI50 was > 100 µM (inactive).

**Q.** What about the GI50 (A498) of the same compound?
**A.** Its GI50 is > 100 µM (inactive).

**Q.** What about the GI50 (OVCAR-5) of the same compound?
**A.** Its GI50 is > 100 µM (inactive).

**Q.** And the GI50 (LOX IMVI)?
**A.** Its GI50 is > 100 µM (inactive).

**Q.** And the GI50 (HOP-92)?
**A.** The GI50 was > 100 µM (inactive).

**Q.** What about the GI50 (HL-60) of the same compound?
**A.** The GI50 was > 100 µM (inactive).

**Q.** What about the GI50 (SF-295) of the same compound?
**A.** Its GI50 is > 100 µM (inactive).

**Q.** What about the GI50 (KM12) of the same compound?
**A.** The GI50 was > 100 µM (inactive).

**Q.** And the GI50 (CCRF-CEM)?
**A.** Its GI50 is > 100 µM (inactive).

**Q.** And the GI50 (COLO 205)?
**A.** The GI50 was > 100 µM (inactive).

**Q.** What about the GI50 (SNB-75) of the same compound?
**A.** The GI50 was > 100 µM (inactive).

**Q.** What about the GI50 (M19-MEL) of the same compound?
**A.** The GI50 was > 100 µM (inactive).

**Q.** And the GI50 (UACC-62)?
**A.** Its GI50 is > 100 µM (inactive).

**Q.** What about the GI50 (HT-29) of the same compound?
**A.** The GI50 was > 100 µM (inactive).

**Q.** What about the GI50 (SK-MEL-5) of the same compound?
**A.** The GI50 was > 100 µM (inactive).

**Q.** What about the GI50 (SK-MEL-2) of the same compound?
**A.** The GI50 was > 100 µM (inactive).

**Q.** Which results are given for `Nc1ccc(S(=O)(=O)Nc2ccc(Nc3c4ccccc4nc4ccccc34)cc2)cc1`?
**A.** GI50 (K562): 0.0716 µM (active); GI50 (SNB-19): 0.0182 µM (active); GI50 (SW-620): 0.0485 µM (active); GI50 (A498): 0.0538 µM (active); GI50 (OVCAR-5): 0.164 µM (active); GI50 (LOX IMVI): 0.015 µM (active); GI50 (HOP-92): 0.5 µM (active); GI50 (HL-60): < 0.0102 µM (active); GI50 (MDA-N): 10.2 µM (inactive); GI50 (SF-295): 0.0127 µM (active); GI50 (KM12): 0.169 µM (active); GI50 (CCRF-CEM): < 0.01 µM (active); GI50 (COLO 205): 0.483 µM (active); GI50 (SNB-75): 0.0158 µM (active); GI50 (M19-MEL): 0.115 µM (active); GI50 (UACC-62): 0.0213 µM (active); GI50 (MDA-MB-435): 9.33 µM (inactive); GI50 (HT-29): 0.198 µM (active); GI50 (SK-MEL-5): 0.0199 µM (active); GI50 (SK-MEL-2): 0.769 µM (active)

— ChEMBL document CHEMBL1201862, “PubChem BioAssay data set” (2004)
